# In patent US6472348B1, “Pyridone derivatives and herbicides” (Kumiai Chemical Industry Co., Ltd., priority 1996, dated 2002):
# Assays:
# Assay type in all cases: in vivo
# barnyardgrass (Ec) [1] = assay: Test Example 1: herbicidal effects by paddy field soil treatment; conditions: 100 g of the active ingredient per 10 ares, 21st day after the application, index 0-5 of Table 47;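 note: grade of growth control; 5 = at least 90%; 4 = 70 to 90%; 3 = 50 to 70%; 2 = 30 to 50%; 1 = 10 to 30%; 0 = under 10%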
# In short: (§1)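 Scoring of herbicidal effect came 21 days after application of 100 g active ingredient per 10 ares to flooded (3 cm) paddy-soil pots sown with barnyardgrass, monochoria and bulrush, kept in a greenhouse.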
# bulrush (Sc) = assay: as above; conditions: 100 g of the active ingredient per 10 ares, 21st day after the application, index 0-5 of Table 47;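 note: grade of growth control; 5 = at least 90%; 4 = 70 to 90%; 3 = 50 to 70%; 2 = 30 to 50%; 1 = 10 to 30%; 0 = under 10%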
# In short: as §1
# monochoria (Mo) = assay: as above; conditions: 100 g of the active ingredient per 10 ares, 21st day after the application, index 0-5 of Table 47;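 note: grade of growth control; 5 = at least 90%; 4 = 70 to 90%; 3 = 50 to 70%; 2 = 30 to 50%; 1 = 10 to 30%; 0 = under 10%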
# In short: as §1
# Digitaria ciliaris (Di) = assay: Test Example 2: herbicidal effects by upland field soil treatment; conditions: 100 g of the active ingredient per 10 ares, 21st day after the application, index 0-5 of Table 47;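 note: grade of growth control; 5 = at least 90%; 4 = 70 to 90%; 3 = 50 to 70%; 2 = 30 to 50%; 1 = 10 to 30%; 0 = under 10%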
# Excerpt: (§2) (Test on Herbicidal Effects by Upland Field Soil Treatment)
# barnyardgrass (Ec) [2] = assay: as above; conditions: 100 g of the active ingredient per 10 ares, 21st day after the application, index 0-5 of Table 47
# Excerpt: as §2
# [3] = system: common lambsquarters (Ch); assay: as above; conditions: 100 g of the active ingredient per 10 ares, 21st day after the application, index 0-5 of Table 47
# Excerpt: as §2
# pale smartweed (Po) [4] = assay: as above; conditions: 100 g of the active ingredient per 10 ares, 21st day after the application, index 0-5 of Table 47
# Excerpt: as §2
# rice flatsedge (Ci) [5] = assay: as above; conditions: 100 g of the active ingredient per 10 ares, 21st day after the application, index 0-5 of Table 47
# Excerpt: as §2
# slender amaranth (Am) [6] = assay: as above; conditions: 100 g of the active ingredient per 10 ares, 21st day after the application, index 0-5 of Table 47
# Excerpt: as §2
# Diaitaria ciliaris (Di) = assay: Test Example 3: herbicidal effects by upland field foliage treatment; set-up: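 grade of growth control; 5 = at least 90%; 4 = 70 to 90%; 3 = 50 to 70%; 2 = 30 to 50%; 1 = 10 to 30%; 0 = under 10%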; conditions: 100 g of the active ingredient per 10 ares, evaluated on the 14th day after treatment
# In short: (§3)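 Readout: visual herbicidal rating per defined standards, 14th day after treatment. Plants sown in sand (pot area 120 cm^2), soil-covered, greenhouse-cultured for 2 weeks prior to foliage application, then greenhouse-grown until scoring.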
# barnyardgrass (Ec) [7] = assay: as above; set-up: scale not given here; conditions: 100 g of the active ingredient per 10 ares, evaluated on the 14th day after treatment
# In short: as §3
# [8] = system: common lambsquarters (Ch); assay: as above; set-up: scale not given here; conditions: 100 g of the active ingredient per 10 ares, evaluated on the 14th day after treatment
# In short: as §3
# pale smartweed (Po) [9] = assay: as above; set-up: scale not given here; conditions: 100 g of the active ingredient per 10 ares, evaluated on the 14th day after treatment
# In short: as §3
# rice flatsedge (Ci) [10] = assay: as above; set-up: scale not given here; conditions: 100 g of the active ingredient per 10 ares, evaluated on the 14th day after treatment
# In short: as §3
# slender amaranth (Am) [11] = assay: as above; set-up: scale not given here; conditions: 100 g of the active ingredient per 10 ares, evaluated on the 14th day after treatment
# In short: as §3
# cotton (Go) = assay: Test Example 4: crop plant selectivity by upland field soil treatment (cotton), phytotoxicity; set-up: scale not given here; conditions: dose 6.3 g ai/10 a, evaluated 21st day after application
# In short: (§4)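 Upland soil-treatment selectivity test: scoring on day 21 post-application in a greenhouse, rating crop phytotoxicity on cotton and herbicidal effect on co-sown weeds. Seeds were sown in sand-filled pots and covered with soil before treatment.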
# China jute (Ab) [12] = assay: Test Example 4: crop plant selectivity by upland field soil treatment (cotton), herbicidal effects; set-up: scale not given here; conditions: dose 6.3 g ai/10 a, evaluated 21st day after application
# In short: as §4
# [13] = system: common lambsquarters (Ch); assay: as above; set-up: scale not given here; conditions: dose 6.3 g ai/10 a, evaluated 21st day after application
# In short: as §4
# green foxtail (Se) [14] = assay: as above; set-up: scale not given here; conditions: dose 6.3 g ai/10 a, evaluated 21st day after application
# In short: as §4
# pale smartweed (Po) [15] = assay: as above; set-up: scale not given here; conditions: dose 6.3 g ai/10 a, evaluated 21st day after application
# In short: as §4
# slender amaranth (Am) [16] = assay: as above; set-up: scale not given here; conditions: dose 6.3 g ai/10 a, evaluated 21st day after application
# In short: as §4
# wheat (Tr) = assay: Test Example 5: crop plant selectivity by upland field soil treatment (wheat), phytotoxicity; set-up: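 grade of crop injury; 5 = at least 90%; 4 = 70 to 90%; 3 = 50 to 70%; 2 = 30 to 50%; 1 = 10 to 30%; 0 = under 10%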; conditions: dose 6.3 g ai/10a, 21st day after application
# In short: (§5)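 Pots of sand sown with wheat and weeds (incl. Digitaria ciliaris, green foxtail, slender amaranth), seeds covered with soil, soil-applied treatment. Grown in greenhouse; herbicidal effect and crop phytotoxicity scored visually on day 21 after application against a rating scale.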
# China jute (Ab) [17] = assay: Test Example 5: crop plant selectivity by upland field soil treatment (wheat), herbicidal effects; set-up: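 grade of growth control; 5 = at least 90%; 4 = 70 to 90%; 3 = 50 to 70%; 2 = 30 to 50%; 1 = 10 to 30%; 0 = under 10%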; conditions: dose 6.3 g ai/10a, 21st day after application
# In short: as §5
# [18] = system: common lambsquarters (Ch); assay: as above; set-up: scale not given here; conditions: dose 6.3 g ai/10a, 21st day after application
# In short: as §5
# green foxtail (Se) [19] = assay: as above; set-up: scale not given here; conditions: dose 6.3 g ai/10a, 21st day after application
# In short: as §5
# pale smartweed (Po) [20] = assay: as above; set-up: scale not given here; conditions: dose 6.3 g ai/10a, 21st day after application
# In short: as §5
# slender amaranth (Am) [21] = assay: as above; set-up: scale not given here; conditions: dose 6.3 g ai/10a, 21st day after application
# In short: as §5
# soybean (Gl) = assay: Test Example 6: crop plant selectivity by upland field soil treatment (soybean), phytotoxicity; set-up: scale not given here; conditions: dose 6.3 g ai/10a, 21st day after application
# Method: (§6) (Test on Crop Plant Selectivity by Upland Field Soil Treatment)
# (§7) In a plastic pot (surface area: 600 cm^2) filled with sand, soybean (Gl), Diaitaria ciliaris (Di), green foxtail (Se), Johnsongrass (So), pale smartweed (Po), slender amaranth (Am), common lambsquarters (Ch) and China jute (Ab) were sown and covered with soil. […] The plants were then cultured in a green house, and the evaluation of the herbicidal effects and phytotoxicity was conducted on the 21st day after the application in accordance with the standards as identified in Table 47. Symbol—represents “not tested”.
# China jute (Ab) [22] = assay: Test Example 6: crop plant selectivity by upland field soil treatment (soybean), herbicidal effects; set-up: scale not given here; conditions: dose 6.3 g ai/10a, 21st day after application
# Method: as §6, §7
# [23] = system: common lambsquarters (Ch); assay: as above; set-up: scale not given here; conditions: dose 6.3 g ai/10a, 21st day after application
# Method: as §6, §7
# green foxtail (Se) [24] = assay: as above; set-up: scale not given here; conditions: dose 6.3 g ai/10a, 21st day after application
# Method: as §6, §7
# pale smartweed (Po) [25] = assay: as above; set-up: scale not given here; conditions: dose 6.3 g ai/10a, 21st day after application
# Method: as §6, §7
# slender amaranth (Am) [26] = assay: as above; set-up: scale not given here; conditions: dose 6.3 g ai/10a, 21st day after application
# Method: as §6, §7
# corn (Ze) = assay: Test Example 7: crop plant selectivity by upland field soil treatment (corn), phytotoxicity; set-up: scale not given here; conditions: dose 6.3 g ai/10a, 21st day after application
# Method: as §6
# (§8) In a plastic pot (surface area: 600 cm^2) filled with sand, corn (Ze), green foxtail (Se), pale smartweed (Po), slender amaranth (Am), common lambsquarters (Ch) and China jute (Ab) were sown and covered with soil. […] The plants were then cultured in a green house, and the evaluation of the herbicidal effects and phytotoxicity was conducted on the 21st day after the application in accordance with the standards as identified in Table 47.
# China jute (Ab) [27] = assay: Test Example 7: crop plant selectivity by upland field soil treatment (corn), herbicidal effects; set-up: scale not given here; conditions: dose 6.3 g ai/10a, 21st day after application
# Method: as §6, §8
# [28] = system: common lambsquarters (Ch); assay: as above; set-up: scale not given here; conditions: dose 6.3 g ai/10a, 21st day after application
# Method: as §6, §8
# green foxtail (Se) [29] = assay: as above; set-up: scale not given here; conditions: dose 6.3 g ai/10a, 21st day after application
# Method: as §6, §8
# pale smartweed (Po) [30] = assay: as above; set-up: scale not given here; conditions: dose 6.3 g ai/10a, 21st day after application
# Method: as §6, §8
# slender amaranth (Am) [31] = assay: as above; set-up: scale not given here; conditions: dose 6.3 g ai/10a, 21st day after application
# Method: as §6, §8
Compound,Herbicidal effects Ec (barnyardgrass (Ec) [1]),Herbicidal effects Sc (bulrush (Sc)),Herbicidal effects Mo (monochoria (Mo)),Herbicidal effects Di (Digitaria ciliaris (Di)),Herbicidal effects Ec (barnyardgrass (Ec) [2]),Herbicidal effects Ch [3],Herbicidal effects Po (pale smartweed (Po) [4]),Herbicidal effects Ci (rice flatsedge (Ci) [5]),Herbicidal effects Am (slender amaranth (Am) [6]),Herbicidal effects Di (Diaitaria ciliaris (Di)),Herbicidal effects Ec (barnyardgrass (Ec) [7]),Herbicidal effects Ch [8],Herbicidal effects Po (pale smartweed (Po) [9]),Herbicidal effects Ci (rice flatsedge (Ci) [10]),Herbicidal effects Am (slender amaranth (Am) [11]),Phytotoxicity Go (cotton (Go)),Herbicidal effects Ab (China jute (Ab) [12]),Herbicidal effects Ch [13],Herbicidal effects Se (green foxtail (Se) [14]),Herbicidal effects Po (pale smartweed (Po) [15]),also measured
Cn1c(C(F)(F)F)ccc(-c2cc(Br)c(Cl)cc2F)c1=O [1-138],5,5,5,5,5,5,5,5,5,5,5,5,5,5,5,1,4,5,5,5,Herbicidal effects Am (slender amaranth (Am) [16]): 5; Phytotoxicity Tr (wheat (Tr)): 1; Herbicidal effects Ab (China jute (Ab) [17]): 4; Herbicidal effects Ch [18]: 5; Herbicidal effects Se (green foxtail (Se) [19]): 5; Herbicidal effects Po (pale smartweed (Po) [20]): 5; Herbicidal effects Am (slender amaranth (Am) [21]): 5; Phytotoxicity Gl (soybean (Gl)): 2; Herbicidal effects Ab (China jute (Ab) [22]): 4; Herbicidal effects Ch [23]: 5; Herbicidal effects Se (green foxtail (Se) [24]): 5; Herbicidal effects Po (pale smartweed (Po) [25]): 5; Herbicidal effects Am (slender amaranth (Am) [26]): 5; Phytotoxicity Ze (corn (Ze)): 2; Herbicidal effects Ab (China jute (Ab) [27]): 4; Herbicidal effects Ch [28]: 5; Herbicidal effects Se (green foxtail (Se) [29]): 5; Herbicidal effects Po (pale smartweed (Po) [30]): 5; Herbicidal effects Am (slender amaranth (Am) [31]): 5
CCC(C)Oc1cc(-c2ccc(C(F)(F)F)n(C)c2=O)c(F)cc1Cl (stereo not drawn) [1-167],5,5,5,5,5,5,5,5,5,5,5,5,5,5,5,1,5,5,5,5,Herbicidal effects Am (slender amaranth (Am) [16]): 5; Phytotoxicity Tr (wheat (Tr)): 1; Herbicidal effects Ab (China jute (Ab) [17]): 5; Herbicidal effects Ch [18]: 5; Herbicidal effects Se (green foxtail (Se) [19]): 5; Herbicidal effects Po (pale smartweed (Po) [20]): 5; Herbicidal effects Am (slender amaranth (Am) [21]): 5; Phytotoxicity Gl (soybean (Gl)): 1; Herbicidal effects Ab (China jute (Ab) [22]): 5; Herbicidal effects Ch [23]: 5; Herbicidal effects Se (green foxtail (Se) [24]): 5; Herbicidal effects Po (pale smartweed (Po) [25]): 5; Herbicidal effects Am (slender amaranth (Am) [26]): 5; Phytotoxicity Ze (corn (Ze)): 0; Herbicidal effects Ab (China jute (Ab) [27]): 5; Herbicidal effects Ch [28]: 5; Herbicidal effects Se (green foxtail (Se) [29]): 5; Herbicidal effects Po (pale smartweed (Po) [30]): 5; Herbicidal effects Am (slender amaranth (Am) [31]): 5
